Assay results as given in patent US10624895B2, “Methods of sensitizing a patient with glioma to a therapeutic agent by administering small hairpin RNA targeting PDZ-RHOGEF” (THE TRANSLATIONAL GENOMICS RESEARCH INSTITUTE, priority 2016, dated 2020).

System: T98G cells overexpressing TROY
Assay: TROY-induced transwell migration with erlotinib
Type: cell-based, human
Conditions: erlotinib (20 uM) 30 min prior to EGF (20 nM), 24 hours
Protocol: FIG. 40 depicts the impact of EGFR suppression by erlotinib on TROY-induced glioma cell migration. Parental T98G (copGFP) and T98G cells overexpressing TROY (TROY WT) were […] for 16 hours and placed into a transwell migration chamber. Cells were then pretreated with erlotinib (20 uM) for 30 min prior to EGF stimulation (20 nM). Cell migration was after 24 hours (* p<0.01).
Thus, the capacity of TROY to stimulate glioma cell invasion and increase TMZ and IR resistance could rely on the formation of a TROY-EGFR signaling complex. This association could activate, or potentiate, shared signaling pathways survival pathways as well as activate distinct TROY signaling pathways that mediate TROY receptor specific functional activities. Therefore, therapeutic approaches targeting TROY and/or both receptors may yield increased therapeutic benefit.

C#Cc1cccc(Nc2ncnc3cc(OCCOC)c(OCCOC)cc23)c1 [erlotinib]
TROY-induced glioma cell migration: suppresses TROY-induced glioma cell migration
